Reference: BindingDB's records for patent US20230365537 (Oric Pharmaceuticals, 2023)
Where “and” joins values, the source holds several entries; their conditions need not be identical. Equal entries are not always repeated.

Columns and labels:
[1] = target: T1, Serine/threonine-protein kinase PLK4 (Homo sapiens, UniProt O00444); assay: PLK4 Biochemical Assay
T1 sequence (O00444 whole entry): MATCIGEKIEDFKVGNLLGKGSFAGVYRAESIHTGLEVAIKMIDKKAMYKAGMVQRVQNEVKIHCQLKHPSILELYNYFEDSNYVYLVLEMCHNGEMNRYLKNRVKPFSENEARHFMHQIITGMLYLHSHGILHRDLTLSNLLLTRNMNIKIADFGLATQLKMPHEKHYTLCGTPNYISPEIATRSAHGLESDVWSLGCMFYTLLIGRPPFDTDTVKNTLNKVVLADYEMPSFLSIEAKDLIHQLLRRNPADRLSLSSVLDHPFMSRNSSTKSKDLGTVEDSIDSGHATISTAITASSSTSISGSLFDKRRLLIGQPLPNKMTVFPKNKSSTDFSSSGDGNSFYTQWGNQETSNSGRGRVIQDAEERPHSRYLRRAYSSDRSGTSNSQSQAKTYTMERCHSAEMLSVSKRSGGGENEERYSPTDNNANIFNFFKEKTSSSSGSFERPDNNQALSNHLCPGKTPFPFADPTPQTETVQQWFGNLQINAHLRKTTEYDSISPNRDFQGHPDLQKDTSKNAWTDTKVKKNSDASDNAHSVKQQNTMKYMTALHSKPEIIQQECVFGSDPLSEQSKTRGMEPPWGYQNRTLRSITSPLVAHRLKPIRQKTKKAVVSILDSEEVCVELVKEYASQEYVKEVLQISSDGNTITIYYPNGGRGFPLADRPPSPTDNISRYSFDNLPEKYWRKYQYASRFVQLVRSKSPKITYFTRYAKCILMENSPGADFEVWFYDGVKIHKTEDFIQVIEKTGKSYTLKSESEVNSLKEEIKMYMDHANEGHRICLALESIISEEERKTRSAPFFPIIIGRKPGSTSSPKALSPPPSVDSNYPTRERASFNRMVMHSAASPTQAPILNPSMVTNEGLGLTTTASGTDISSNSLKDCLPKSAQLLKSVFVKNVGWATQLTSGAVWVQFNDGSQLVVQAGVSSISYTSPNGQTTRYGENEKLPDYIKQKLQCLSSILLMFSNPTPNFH
Method: (§1) Activity of human recombinant PLK4 (ThermoFisher, cat #PV6396) was measured by quantification of adenosine diphosphate (ADP) using the ADP-Glo Kinase Assay Kit (Promega, cat #V9102). […] 5 µL of 1.0 nM PLK4 protein in assay buffer (50 mM HEPES, pH 7.5, 0.01% Brij-35, 0.01% BSA, 10 mM MgCl2, 1 mM EGTA, 1 mM DTT) was added to the plates. Test compounds and PLK4 were incubated for 15 minutes at room temperature (RT). […] Reactions were stopped and the remaining ATP depleted by adding 10 µL of ADP-Glo reagent (Promega, cat#V912B) and incubating for 40 minutes at RT. The simultaneous conversion of the remaining ADP to ATP and measurement of the newly synthesized ATP was achieved by addition of 20 µL Kinase Detection reagent (Promega, cat #V914B), incubation for 30 min at RT, and luminescence detection using the EnVision plate reader (PerkinElmer). […] The IC50 values reported in Table 2 were determined using four parameter non-linear regression curve fit.

Aurora kinase A = target: T2, Aurora kinase A (Homo sapiens, UniProt O14965); assay: Aurora A Kinase Biochemical Assay
T2 sequence (O14965 whole entry): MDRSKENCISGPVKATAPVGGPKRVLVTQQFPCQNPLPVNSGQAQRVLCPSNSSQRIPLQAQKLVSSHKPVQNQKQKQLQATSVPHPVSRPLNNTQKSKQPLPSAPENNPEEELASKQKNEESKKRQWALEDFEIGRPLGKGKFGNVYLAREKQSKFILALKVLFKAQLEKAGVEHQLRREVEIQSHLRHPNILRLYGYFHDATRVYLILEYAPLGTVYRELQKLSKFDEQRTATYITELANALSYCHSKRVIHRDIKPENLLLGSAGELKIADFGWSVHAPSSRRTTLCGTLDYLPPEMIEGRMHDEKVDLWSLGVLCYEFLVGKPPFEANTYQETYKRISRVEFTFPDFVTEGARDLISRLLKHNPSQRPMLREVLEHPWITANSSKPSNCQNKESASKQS
Method: as §1, with “Aurora A” for “PLK4”, “#PR5935A)” for “#PV6396)”, “5.0” for “1.0”, “Aurora A” for “PLK4 protein”, “10uL” for “10 µL”

Aurora kinase B = Aurora kinase B (Homo sapiens, UniProt Q96GD4); assay: Aurora B Kinase Biochemical Assay
Sequence of Aurora kinase B (Q96GD4 whole entry): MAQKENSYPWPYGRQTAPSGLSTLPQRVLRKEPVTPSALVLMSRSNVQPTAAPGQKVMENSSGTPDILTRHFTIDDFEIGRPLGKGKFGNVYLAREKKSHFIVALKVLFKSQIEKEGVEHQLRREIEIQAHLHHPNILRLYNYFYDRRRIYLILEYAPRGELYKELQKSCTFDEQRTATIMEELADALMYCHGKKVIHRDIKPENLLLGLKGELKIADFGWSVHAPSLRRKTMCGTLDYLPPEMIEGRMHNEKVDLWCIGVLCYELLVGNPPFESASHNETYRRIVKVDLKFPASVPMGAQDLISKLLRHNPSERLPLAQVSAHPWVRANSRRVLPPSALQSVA
Method: as §1, with “Aurora B” for “PLK4”, “#PR9210B)” for “#PV6396)”, “20” for “1.0”, “Aurora B” for “PLK4 protein”, “10uL” for “10 µL”, “parameter” for “parameter non-linear regression curve fit.”

Row | SMILES | IC50 [1] [nM] | IC50 (Aurora kinase A) | IC50 (Aurora kinase B)
1 | COc1ccc2c(c1)[C@]1(C[C@H]1c1ccc3c(Nc4cc(S(=O)(=O)C5CCOCC5)ccc4OC)n[nH]c3c1)C(=O)N2 [US20230365537, Example 224] | 4.02 |  | 
2 | COc1ccc2c(c1)[C@]1(C[C@H]1c1ccc3c(Nc4cc(N5CCN(C)C5=O)cnc4OC)n[nH]c3c1)C(=O)N2 [US20230365537, Example 221] | 2.8 |  | 
3 | COc1ccc2c(c1)[C@]1(C[C@H]1c1ccc3c(Nc4ccc(S(C)(=O)=O)nc4OC)n[nH]c3c1)C(=O)N2 [US20230365537, Example 168] |  | 1860 nM and 2030 nM | 521 nM and 1060 nM
